# Tests used:
# [1] = tested on: hepatic fatty acid synthesis; test: Measurement of fatty acid synthesis inhibition in experimental animals ([2-14C]acetate into saponifiable lipids in liver); assay type: in vivo, Sprague Dawley rats; conditions: Rattus norvegicus; for inhibition at 30 mg/kg: po, read-out: Percent Inhibition at 30 mg/kg
# Excerpt: The ACC inhibitory activity of compounds of this invention, and the salts of such compounds, can be confirmed in vivo by evaluation of their ability to inhibit hepatic fatty acid production and to stimulate whole body fatty acid oxidation using methods based on standard procedures. For example, since ACC catalyzes the first committed step in the biosynthesis of fatty acids, the in vivo activity of these compounds can be confirmed by measuring the ability of the compounds of this invention, and the salts of such compounds, to prevent the formation of radio labeled fatty acids from radio labeled acetate in the livers of treated mammals.
# [1] Measurement of fatty acid synthesis inhibition in experimental animals. Incorporation of [2-^14C]acetate into saponifyable lipids in the livers of mammals (e.g. CDI mice, C57BI/6J-ob/ob mice, Sprague Dawley rats (available from Charles River Boston, Mass. or Jackson Labs Bar Harbor, Me.)) can be measured essentially as previously described for assessment of hepatic sterol synthesis (Harwood et al, Biochem. Pharmacol, 40: 1281-1293, 1990; Harwood et al. Biochem. Pharmacol. 53: 839-864, 1997) with the following modifications to allow for assessment fatty acid synthesis. For example, Sprague Dawley rats are administered a 0.1 ml per 40 g body weight of an oral bolus of vehicle (e.g. water or 0.5% methylcellulose in water)±test compound. One to four hours after compound administration, animals receive an intraperitoneal injection of 0.5 ml of [2-^14C]acetate (64 μCi/ml; 57 mCi/mmol). One hour after radiolabel administration, animals are sacrificed by CO2 asphyxiation and two, 0.75 g liver pieces are removed and saponified at […]. for 120 minutes in 1.5 ml of 2.5 M NaOH. After saponification, 2.5 ml of absolute EtOH are added to each sample and the solutions are mixed and allowed to stand overnight. Petroleum ether, 4.8 ml, is then added to each sample and the mixtures are first shaken vigorously for 2 minutes then centrifuged at 1000×g in a bench-top Sorvall®9 for 5 minutes. The resultant petroleum ether layers, which contain the nonsaponifyable lipids (e.g. cholesterol, post-squalene cholesterol precursors and other non-saponifiable lipids), are removed and discarded. The remaining aqueous layer (containing fatty acid sodium salts) is acidified to pH<2 by addition of 0.6 ml of 12 M HCl and extracted two times with 4.8 ml of petroleum ether. The pooled organic fractions (containing protonated fatty acids) are transferred to liquid scintillation vials, dried under nitrogen, dissolved in 7 ml of Aqua sol liquid scintillation fluid, and assessed for radioactivity using a liquid scintillation counter. Inhibition of fatty acid synthesis by the test compound is expressed as the concentration required to reduce by 50% the dpm [2-^14C]acetate incorporated into saponifiable lipids during the 1 hour interval between radio labeled acetate injection and CO2 asphyxiation.
# Some compounds of the present were evaluated for inhibition of fatty acid synthesis as described above. As shown below, these compounds were all observed to inhibit the synthesis of fatty acids in vivo.
# [2] = molecular target: T1, ACC1 from rat liver (Rattus norvegicus, UniProt P11497); test: Direct inhibition of ACC1 activity (14C-bicarbonate incorporation); assay type: biochemical; conditions: ACC1 from rat liver
# T1 construct: The livers (for ACC1 preparation) or skeletal muscle tissue (for ACC2 preparation) are removed; from tissue; host or cells: liver of male CD rats (fasted, then fed a high sucrose diet)
# Method in brief: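 ACC1 partially purified from livers of fasted/sucrose-refed male rats by PEG and ammonium sulfate fractionation, then preincubated 30 min at 37°C with 10 mM citrate and 1.0 mM MgCl2. Reaction ran 7 min at 37°C, stopped with HCl; acid-stable radioactivity counted by scintillation; HCl-first tubes served as blanks.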
# [3] = molecular target: T2, ACC2 from rat skeletal muscle (Rattus norvegicus, UniProt Q1HEC0); test: Direct inhibition of ACC2 activity (14C-bicarbonate incorporation); assay type: biochemical; conditions: ACC2 from rat skeletal muscle
# T2 construct: The livers (for ACC1 preparation) or skeletal muscle tissue (for ACC2 preparation) are removed; from tissue; host or cells: skeletal muscle of male CD rats (fasted, then fed a high sucrose diet)
# Experimental: For example direct inhibition of ACC1 and ACC2 activity, for compounds of Formula (1) were determined using preparations of ACC1 from rat liver and ACC2 from rat skeletal muscle.
# [1] Preparation of ACC1 and ACC2. ACC1 was obtained from rat liver and ACC2 was obtained from rat skeletal muscle based upon standard procedures such as those described by Thampy and Wakil (J. Biol. Chem. 260: 6318-6323; 1985) using the following method.
# Male CD rats weighing 150-200 g are fasted for 2 days and then fed a high sucrose diet (AIN-76A rodent diet; Cat # D10001, Research Diets Inc., New Brunswick, N.J.), for 3 days at which time they are sacrificed by CO2 asphyxiation. The livers (for ACC1 preparation) or skeletal muscle tissue (for ACC2 preparation) are removed, rinsed in ice-cold phosphate-buffered saline (PBS), and homogenized in 5 volumes of homogenization buffer (50 mM potassium phosphate, pH 7.5, 10 mM EDTA, 10 mM 2-mercaptoethanol, 2 mM benzamidine, 0.2 mM phenylmethylsulfonylfluoride (PMSF), 5 mg/L each leupeptin, aprotinin, and antitrypsin) in a Waring® blender for 1 minute at 4° C. All subsequent operations are carried out at 4° C. The homogenate is made 3% with respect to polyethylene glycol (PEG) by the addition of 50% PEG solution and centrifuged at 20,000×g for 15 minutes. The resulting supernatant is adjusted to 5% PEG with the addition of 50% PEG solution and stirred for 5 minutes. The pellet (contains ACC activity) is collected by centrifugation at 20,000×g for 20 minutes, rinsed with Ice-cold doubly distilled water to remove excess PEG and re-suspended in one-fourth the original homogenate volume with homogenization buffer. Ammonium sulfate (200 g/liter) is slowly added with stirring. After 45 minutes the enzyme is collected by centrifugation for 30 minutes at 20,000×g, re-suspended in 10 ml of 50 mM HEPES, pH7.5, 0.1 mM DTT, 1.0 mM EDTA, and 10% glycerol and desalted on a Sephadex™ G-25 column (2.5 cm-x 50 cm) (Pharmacia, Piscataway N.J. now GE Healthcare) […] equilibrated with the same buffer. The desalted enzyme preparation is stored in aliquots at −70° C. Immediately prior to use, frozen ACC1 or ACC2 aliquots are thawed, diluted to 500 μg/ml in buffer containing 50 mM HEPES, pH7.5, 1.0 mM MgCl2, 10 mM tripotassium citrate, 2.0 mM dithiothreitol (DTT), and 0.75 mg/ml fatty acid-free bovine serum albumin (BSA) and pre-incubated at 37° C. for 30 minutes.
# [2] Measurement of ACC inhibition. The procedures for measuring ACC1 inhibition and ACC2 inhibition are identical except for the source of the isozyme. For measurement of ACC activity and assessment of ACC inhibition, test compounds are dissolved in dimethylsulfoxide (DMSO) and 1 μL aliquots are placed in 0.5 ml polypropylene tubes. Control tubes contain 1 μL of DMSO alone. Tubes are incubated at 37° C. in a constant temperature water bath. […] The reaction is then initiated by the addition of 10 μL of preincubated ACC fraction prepared as described above. After 7 minutes the reaction is terminated by the addition of 50 μL of 6N HCl and a 150 μL aliquot of the reaction mixture is transferred to glass scintillation vials and evaporated to dryness at 90° C. for at least 1 hour. The dried vials are then cooled, 0.5 ml of water and 5.5 ml of Ready Safe liquid scintillation fluid (Beckman Coulter Inc., Fullerton, Calif.) are added, and the radioactivity is determined using a liquid scintillation counter. Tubes that received HCl before ACC served as blanks.
# [3] Specificity for ACC1 vs ACC2 inhibition. The specificity of a compound for Inhibiting ACC1 vs ACC2 can be determined by comparing the concentration of test compound required to inhibit 50% of the activity contained in an aliquot of ACC1 as compared with the concentration of the same compound required to inhibit 50% of the activity of an aliquot of ACC2.
# T2 sequence (Q1HEC0 17-2455): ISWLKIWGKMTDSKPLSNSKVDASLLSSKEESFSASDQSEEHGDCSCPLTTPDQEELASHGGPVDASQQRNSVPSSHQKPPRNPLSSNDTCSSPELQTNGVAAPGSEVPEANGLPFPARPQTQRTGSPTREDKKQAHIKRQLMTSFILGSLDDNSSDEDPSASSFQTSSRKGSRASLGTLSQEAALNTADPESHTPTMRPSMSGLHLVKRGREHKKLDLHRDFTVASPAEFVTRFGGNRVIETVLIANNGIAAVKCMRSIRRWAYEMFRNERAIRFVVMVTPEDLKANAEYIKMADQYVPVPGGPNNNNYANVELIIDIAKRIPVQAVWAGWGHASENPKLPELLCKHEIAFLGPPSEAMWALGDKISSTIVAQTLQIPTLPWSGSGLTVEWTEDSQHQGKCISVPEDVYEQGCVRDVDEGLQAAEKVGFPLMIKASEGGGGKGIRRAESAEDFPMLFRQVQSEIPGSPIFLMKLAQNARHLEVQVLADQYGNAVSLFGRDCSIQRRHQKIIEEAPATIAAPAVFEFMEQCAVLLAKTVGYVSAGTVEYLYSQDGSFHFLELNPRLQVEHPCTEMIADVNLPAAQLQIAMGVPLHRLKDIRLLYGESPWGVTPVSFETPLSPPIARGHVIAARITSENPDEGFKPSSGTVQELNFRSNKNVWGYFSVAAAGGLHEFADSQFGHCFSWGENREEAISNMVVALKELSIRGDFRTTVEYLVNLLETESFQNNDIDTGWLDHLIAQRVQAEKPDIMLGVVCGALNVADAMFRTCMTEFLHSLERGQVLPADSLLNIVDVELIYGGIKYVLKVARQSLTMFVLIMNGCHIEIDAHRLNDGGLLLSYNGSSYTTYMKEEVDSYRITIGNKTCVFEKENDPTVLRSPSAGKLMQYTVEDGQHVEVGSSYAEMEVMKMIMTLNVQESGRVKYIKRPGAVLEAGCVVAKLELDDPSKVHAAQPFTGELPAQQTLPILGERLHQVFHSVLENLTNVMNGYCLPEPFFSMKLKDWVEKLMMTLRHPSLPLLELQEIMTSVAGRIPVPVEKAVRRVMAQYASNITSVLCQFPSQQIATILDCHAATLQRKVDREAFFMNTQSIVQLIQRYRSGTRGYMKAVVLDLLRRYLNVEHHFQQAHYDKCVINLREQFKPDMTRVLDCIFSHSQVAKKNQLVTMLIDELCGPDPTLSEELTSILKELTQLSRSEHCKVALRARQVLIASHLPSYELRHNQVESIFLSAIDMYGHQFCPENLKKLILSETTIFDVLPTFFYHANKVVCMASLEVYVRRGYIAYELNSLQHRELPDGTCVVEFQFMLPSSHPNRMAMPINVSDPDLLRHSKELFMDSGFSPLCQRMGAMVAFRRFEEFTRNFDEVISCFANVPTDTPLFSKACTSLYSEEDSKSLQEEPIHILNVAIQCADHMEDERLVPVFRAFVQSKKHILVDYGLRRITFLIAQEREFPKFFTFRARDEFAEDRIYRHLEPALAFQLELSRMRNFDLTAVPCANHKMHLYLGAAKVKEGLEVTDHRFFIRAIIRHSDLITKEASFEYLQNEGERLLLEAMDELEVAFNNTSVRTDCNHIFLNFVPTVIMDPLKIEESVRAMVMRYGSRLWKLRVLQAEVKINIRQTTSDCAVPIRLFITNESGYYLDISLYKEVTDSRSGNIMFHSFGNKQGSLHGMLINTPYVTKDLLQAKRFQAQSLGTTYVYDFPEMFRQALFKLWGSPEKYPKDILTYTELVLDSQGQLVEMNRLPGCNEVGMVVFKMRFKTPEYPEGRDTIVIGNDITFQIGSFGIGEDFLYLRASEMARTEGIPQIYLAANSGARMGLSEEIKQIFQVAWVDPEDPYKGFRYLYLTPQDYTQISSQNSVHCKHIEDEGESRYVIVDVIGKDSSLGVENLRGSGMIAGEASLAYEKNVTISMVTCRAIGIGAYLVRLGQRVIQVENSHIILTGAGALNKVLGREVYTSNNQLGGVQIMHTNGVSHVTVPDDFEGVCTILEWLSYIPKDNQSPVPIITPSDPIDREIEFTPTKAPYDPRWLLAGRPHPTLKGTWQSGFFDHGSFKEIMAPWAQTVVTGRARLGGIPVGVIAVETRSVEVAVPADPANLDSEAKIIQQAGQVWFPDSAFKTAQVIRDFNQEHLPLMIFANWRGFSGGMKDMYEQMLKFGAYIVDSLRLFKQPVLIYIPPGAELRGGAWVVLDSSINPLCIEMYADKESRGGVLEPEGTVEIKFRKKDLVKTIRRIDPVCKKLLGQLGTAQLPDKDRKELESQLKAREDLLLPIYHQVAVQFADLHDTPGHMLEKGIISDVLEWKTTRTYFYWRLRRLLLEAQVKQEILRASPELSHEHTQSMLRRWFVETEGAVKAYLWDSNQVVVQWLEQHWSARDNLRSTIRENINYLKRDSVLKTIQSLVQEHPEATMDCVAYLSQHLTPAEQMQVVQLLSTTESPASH
Compound,IC50 [2],IC50 [3],inhibition at 30 mg/kg [1],"inhibition at 10 mg/kg ([1]; inhibition of fatty acid synthesis in vivo, 10 mg/kg, oral bolus, read-out: Percent Inhibition at 10 mg/kg)"
"Cc1cc2c(cc1C)C(=O)CC1(CCN(C(=O)c3cc(C)c4[nH]ncc4c3)CC1)O2 [Ex. A1, 6,7-dimethyl-1′-[(7-methyl-1H-indazol-5-yl)carbonyl]spiro-[chromene-2,4′-piperidin]-4(3H)-one]",23.5 nM,36.4 nM,35.4%,
"COc1ccc2c(c1F)C(=O)CC1(CCN(C(=O)c3cc(C)c4[nH]ncc4c3)CC1)O2 [Ex. A9, 5-fluoro-6-methoxy-1′-[(7-methyl-1H-indazol-5-yl)carbonyl]spiro[chromene-2,4′-piperidin]-4(3H)-one]",37.4 nM,,33.5%,
"Cc1cc(C(=O)N2CCC3(CC2)CC(=O)c2cc(OC(F)(F)F)ccc2O3)cc2cn[nH]c12 [Ex. A12, 1′-[(7-methyl-1H-indazol-5-yl)carbonyl]-6-(trifluoromethoxy)spiro[chromene-2,4-piperidin]-4(3H)-one]",41.9 nM,,38.7%,
"Cc1cc2c(cc1Cl)C(=O)CC1(CCN(C(=O)c3cc(C)c4[nH]ncc4c3)CC1)O2 [Ex. A13, 6-chloro-7-methyl-1′-[(7-methyl-1H-indazol-5-yl)carbonyl]spiro[chromene-2,4′-piperidin]-4(3H)-one]",45 nM,,64%,
"COc1ccc2c(c1)C(=O)CC1(CCN(C(=O)c3cc(C)c4[nH]ncc4c3)CC1)O2 [Ex. A16, 6-methoxy-1′-[(7-methyl-1H-indazol-5-yl)carbonyl]spiro[chromene-2,4′-piperidin]-4(3H)-one]",55.1 nM,,83%,68%
"Cc1cc(C(=O)N2CCC3(CC2)CC(=O)c2cc(Cl)c(F)cc2O3)cc2cn[nH]c12 [Ex. A21, 6-chloro-7-fluoro-1′-[(7-methyl-1H-indazol-5-yl)carbonyl]spiro[chromene-2,4′-piperidin]-4(3H)-one]",96.6 nM,,59.5%,

# Further lines, with some results ahead:
IC50 [2],IC50 [3],Compound,inhibition at 30 mg/kg [1],"inhibition at 10 mg/kg ([1]; inhibition of fatty acid synthesis in vivo, 10 mg/kg, oral bolus, read-out: Percent Inhibition at 10 mg/kg)"
96.5 nM,,"Cc1cc2c(cc1C)C(=O)CC1(CCN(C(=O)c3ccc4[nH]ncc4c3)CC1)O2 [Ex. E1, 1′-(1H-indazol-5-ylcarbonyl)-6,7-dimethylspiro[chromene-2,4′-piperidin]-4(3H)-one]",30.9%,
108 nM,,"Cc1cc2c(cc1Cl)C(=O)CC1(CCN(C(=O)c3ccc4[nH]ncc4c3)CC1)O2 [Ex. E2, 6-chloro-1′-(1H-indazol-5-ylcarbonyl)-7-methylspiro[chromene-2,4′-piperidin]-4(3H)-one]",30.7%,
